Data taken from patent publication US20230257376A1, “ROCK INHIBITOR, AND PREPARATION METHOD THEREFOR AND USE THEREOF” (WUHAN LL SCIENCE AND TECHNOLOGY DEVELOPMENT CO., LTD., priority 2020, published 2023).

Key:
[1] = In vitro cytotoxicity assay in HepG2 cells using the CCK-8 method; type: cell-based; details: human
Method: In vitro cytotoxicity assay for the compounds disclosed herein was performed in HepG2 cells using the CCK-8 method. HepG2 cells (Beina Bio) in the logarithmic growth phase were collected, the concentration of cell suspension was adjusted, and then the cells were plated on a 96-well cell culture plate at 50,000 cells/well. The cells were then incubated overnight in a cell incubator (5%, 37° C.), and after 80-90% cell confluence was achieved, test compound at each concentration gradient or vehicle (DMSO) was added after medium change. The resulting mixture was incubated in the cell incubator (5%, 37° C.) for 48 h. After the treatment, the medium in the plate was discarded. The plate was washed twice with PBS, added with CCK-8 working solution (Beyotime) at 100 μL per well, and then incubated at 37° C. for 1.5 h in the dark. Absorbance at OD450 nm mil was measured for each well on a microplate reader, and CC50 value of each compound was analyzed and calculated.

ROCK1 kinase = target: T1, ROCK1 kinase (Homo sapiens, UniProt Q13464); assay: In vitro evaluation of ROCK1 kinase selectivity (HTRF KinEASE-STK time-resolved fluorometric assay); type: biochemical; details: ROCK1 kinase 0.4 ng/μL, ATP 3.53 μM
T1 construct: purchased Invitrogen
Method: ROCK1 activity was detected using a 96-well (Cisbio) time-resolved fluorometric assay. The assay for ROCK1 was performed in the following assay buffer: 5 mM MgCl2 (Sigma), 1 mM DTT (Sigma) and 1× kinase buffer. The kinase buffer was used for dilution. 7.5 μL of ROCK1 kinase (Invitrogen) was added to a 96-well microplate to reach a final concentration of 0.4 ng/μL, and then 0.25 μL of test compound (DMSO content: 1%) was added. The mixture was incubated at room temperature for 0.5 h. To start the reaction, the kinase buffer was also used to mix ATP (Aladdin) and the substrate STK-substrate 2-biotin. 7.5 μL of the mixed solution was added to the microplate to reach final concentrations of 3.53 μM and 1 μM. The resulting mixture was incubated at room temperature for 2 h. 5 mL of detection buffer was mixed with STK antibody-Cryptate, and then an appropriate volume of the mixture was mixed with an equal volume of streptavidin-XL665. 10 μL of the resulting mixture was added to stop the reaction. After further incubation for about 1 h, the microplate was read on a Molecular Devices SpectraMax i3x multifunctional microplate reader. The kinase buffer, the STK-substrate 2-biotin, the detection buffer, the STK antibody-Cryptate, and the streptavidin-XL665 were all from HTRF KinEASE-STK kit (Cisbio, 1000 tests, 61GSTXLA).

ROCK2 kinase = target: T2, ROCK2 kinase (Homo sapiens, UniProt O75116); assay: In vitro evaluation of ROCK2 kinase activity (HTRF KinEASE-STK time-resolved fluorometric assay); type: biochemical; details: ROCK2 kinase 0.4 ng/μL, ATP 6.739 μM
T2 construct: purchased Invitrogen PV3759
Method: ROCK2 activity screening. ROCK2 activity was detected using a 96-well (Cisbio) time-resolved fluorometric assay. The assay for ROCK2 was performed in the following assay buffer: 5 mM MgCl2 (Sigma), 1 mM DTT (Sigma) and 1× kinase buffer. The kinase buffer was used for dilution. 7.5 μL of ROCK2 kinase (Invitrogen, PV3759) was added to a 96-well microplate to reach a final concentration of 0.4 ng/μL, and then 0.25 μL of test compound (DMSO content: 1% (volume fraction)) was added. The mixture was incubated at room temperature for 0.5 h. To start the reaction, the kinase buffer was used to mix ATP (Aladdin) and the substrate STK-substrate 2-biotin. 7.5 μL of the mixed solution was added to the microplate to reach final concentrations of 6.739 μM and 1 μM. The resulting mixture was incubated at room temperature for 2 h. 5 mL of detection buffer was mixed with STK antibody-Cryptate, and then an appropriate volume of the mixture was mixed with an equal volume of streptavidin-XL665. 10 μL of the resulting mixture was added to the microplate to stop the reaction. After further incubation for about 1 h, the microplate was read on a Molecular Devices SpectraMax i3x multifunctional microplate reader. The kinase buffer, the STK-substrate 2-biotin, the detection buffer, the STK antibody-Cryptate, and the streptavidin-XL665 were all from HTRF KinEASE-STK kit (Cisbio, 1000 tests, 61GSTXLA).

[2] = In vitro metabolic stability, human liver microsome incubation; type: in vitro ADME; details: liver microsomes, 1 mg/mL protein, 37° C., read-out: T1/2 in human liver microsome
Method: (§1) The in vitro metabolic stability of the compounds disclosed herein was determined through incubation of liver microsomes of various species. A proper amount of test compound was added into a liver microsome reaction system (1 mg/mL liver microsome protein, 25 U/mL glucose-6 phosphate dehydrogenase, 1 mM NADP, 6 mM D-glucose 6-phosphate and 5 mM MgCl2), and then the mixture was incubated in a water bath kettle at 37° C. to start reaction. At each time point, 100 μL of the reaction liquid was added into a centrifuge tube containing 400 μL of internal standard working solution (containing a 200 ng/mL solution of dexamethasone, diclofenac, tolbutamide and labetalol in acetonitrile) precooled at 0° C. so as to stop the reaction, and the mixture was then centrifuged at 10,000 g for 10 min at 4° C. The supernatant was collected for LC-MS assay so as to obtain the values of in vitro metabolic half-life of the test compounds in liver microsomes of various species.

[3] = In vitro metabolic stability, rat liver microsome incubation; type: in vitro ADME; details: liver microsomes, 1 mg/mL protein, 37° C., read-out: T1/2 in rat liver microsome
Method: as §1

[4] = In vitro metabolic stability, guinea pig liver microsome incubation; type: in vitro ADME; details: liver microsomes, 1 mg/mL protein, 37° C., read-out: T1/2 in guinea pig liver microsome
Method: as §1

T1 sequence (Q13464 whole entry): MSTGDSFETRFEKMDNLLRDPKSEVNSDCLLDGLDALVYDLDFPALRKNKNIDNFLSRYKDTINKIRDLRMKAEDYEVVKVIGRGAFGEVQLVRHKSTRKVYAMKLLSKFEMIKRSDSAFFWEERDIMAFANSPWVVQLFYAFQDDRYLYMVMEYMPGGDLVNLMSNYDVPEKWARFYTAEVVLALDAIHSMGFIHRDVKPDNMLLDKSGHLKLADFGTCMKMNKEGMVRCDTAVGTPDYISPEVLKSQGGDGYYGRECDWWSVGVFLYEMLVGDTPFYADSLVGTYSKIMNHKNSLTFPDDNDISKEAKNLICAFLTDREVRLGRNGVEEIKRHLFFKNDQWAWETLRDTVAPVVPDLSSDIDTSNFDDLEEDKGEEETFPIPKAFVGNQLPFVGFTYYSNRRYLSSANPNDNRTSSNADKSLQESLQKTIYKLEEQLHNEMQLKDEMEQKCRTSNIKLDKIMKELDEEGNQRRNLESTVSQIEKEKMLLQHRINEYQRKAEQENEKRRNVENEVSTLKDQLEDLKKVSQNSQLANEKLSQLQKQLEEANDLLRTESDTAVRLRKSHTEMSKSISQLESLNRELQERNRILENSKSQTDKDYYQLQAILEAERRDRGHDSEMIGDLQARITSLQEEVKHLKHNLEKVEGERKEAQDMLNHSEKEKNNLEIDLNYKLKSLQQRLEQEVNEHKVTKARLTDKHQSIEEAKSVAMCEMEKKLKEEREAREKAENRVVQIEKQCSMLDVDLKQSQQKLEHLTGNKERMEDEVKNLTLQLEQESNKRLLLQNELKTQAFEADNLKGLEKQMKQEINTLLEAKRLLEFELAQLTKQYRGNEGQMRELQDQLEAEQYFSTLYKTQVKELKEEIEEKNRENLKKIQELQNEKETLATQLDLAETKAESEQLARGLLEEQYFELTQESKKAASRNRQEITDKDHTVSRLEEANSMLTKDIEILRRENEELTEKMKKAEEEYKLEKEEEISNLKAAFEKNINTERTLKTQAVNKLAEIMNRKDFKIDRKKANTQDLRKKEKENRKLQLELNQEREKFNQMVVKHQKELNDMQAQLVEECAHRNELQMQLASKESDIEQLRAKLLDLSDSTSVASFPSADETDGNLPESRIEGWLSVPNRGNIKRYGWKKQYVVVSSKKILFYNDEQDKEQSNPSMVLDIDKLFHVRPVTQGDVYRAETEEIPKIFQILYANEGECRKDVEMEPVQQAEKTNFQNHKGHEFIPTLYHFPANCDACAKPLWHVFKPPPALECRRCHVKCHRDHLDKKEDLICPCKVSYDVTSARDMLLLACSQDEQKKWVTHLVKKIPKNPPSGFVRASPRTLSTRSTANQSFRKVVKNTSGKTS
T2 sequence (O75116 whole entry): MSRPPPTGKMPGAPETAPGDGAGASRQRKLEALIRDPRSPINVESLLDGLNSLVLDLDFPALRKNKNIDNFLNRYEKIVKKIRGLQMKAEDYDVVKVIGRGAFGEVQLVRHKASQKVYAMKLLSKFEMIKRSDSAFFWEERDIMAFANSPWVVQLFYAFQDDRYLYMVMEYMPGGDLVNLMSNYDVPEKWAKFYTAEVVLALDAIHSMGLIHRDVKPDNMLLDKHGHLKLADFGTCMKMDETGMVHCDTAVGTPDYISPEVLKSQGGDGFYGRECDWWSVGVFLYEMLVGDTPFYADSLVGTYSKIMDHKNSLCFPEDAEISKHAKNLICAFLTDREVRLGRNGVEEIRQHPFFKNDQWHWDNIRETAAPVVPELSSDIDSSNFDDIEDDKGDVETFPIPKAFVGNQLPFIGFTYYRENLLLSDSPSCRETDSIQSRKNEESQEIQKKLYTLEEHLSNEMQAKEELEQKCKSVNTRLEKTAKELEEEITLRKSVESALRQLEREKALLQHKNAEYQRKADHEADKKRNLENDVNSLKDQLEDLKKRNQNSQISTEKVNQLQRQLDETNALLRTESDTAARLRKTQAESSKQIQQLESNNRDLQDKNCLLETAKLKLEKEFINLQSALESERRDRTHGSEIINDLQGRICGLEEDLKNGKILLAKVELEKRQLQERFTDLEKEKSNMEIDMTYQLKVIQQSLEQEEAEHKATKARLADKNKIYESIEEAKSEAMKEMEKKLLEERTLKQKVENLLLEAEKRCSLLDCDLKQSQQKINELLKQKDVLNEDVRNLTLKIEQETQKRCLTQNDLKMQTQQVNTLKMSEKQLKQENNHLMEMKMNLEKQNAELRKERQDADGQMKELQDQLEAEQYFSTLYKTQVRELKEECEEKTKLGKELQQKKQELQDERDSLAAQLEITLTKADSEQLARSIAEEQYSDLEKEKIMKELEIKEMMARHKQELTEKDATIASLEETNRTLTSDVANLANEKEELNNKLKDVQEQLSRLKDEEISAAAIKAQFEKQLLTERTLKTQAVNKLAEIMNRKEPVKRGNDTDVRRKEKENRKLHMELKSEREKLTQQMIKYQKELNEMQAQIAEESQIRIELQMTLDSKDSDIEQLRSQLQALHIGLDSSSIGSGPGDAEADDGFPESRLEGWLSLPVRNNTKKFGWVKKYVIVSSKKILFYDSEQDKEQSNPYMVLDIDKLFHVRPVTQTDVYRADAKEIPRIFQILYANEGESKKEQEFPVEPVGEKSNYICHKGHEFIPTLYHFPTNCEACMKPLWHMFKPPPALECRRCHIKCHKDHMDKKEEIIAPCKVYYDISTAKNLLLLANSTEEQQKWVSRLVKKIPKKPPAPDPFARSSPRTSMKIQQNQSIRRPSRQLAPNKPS

## O=C(c1cc2c(n1C(F)F)CN(c1ncc(F)c(Nc3ccc(-c4cn[nH]c4)cc3)n1)CC2)N1CC(F)(F)C1 [Compound L047, (6-(4-((4-(1H-pyrazol-4-yl)phenyl)amino)-5-fluoropyrimidin-2-yl)-1-(difluoromethyl)-4,5,6,7-tetrahydro-1H-pyrrolo[2,3-c]pyridin-2-yl)(3,3-difluoroazetidin-1-yl)methanone]
[1]
  CC50 at 48 h: > 100 µM
ROCK1 kinase
  IC50: > 4.5 µM
ROCK2 kinase
  IC50: > 4.5 µM

## Cn1c(C(=O)N2CC(F)(F)C2)cc2c1CN(c1nncc(Nc3ccc(-c4cn[nH]c4)cc3)n1)CC2 [Compound L037, (6-(5-((4-(1H-pyrazol-4-yl)phenyl)amino)-1,2,4-triazin-3-yl)-1-methyl-4,5,6,7-tetrahydro-1H-pyrrolo(2,3-c)pyridin-2-yl)(3,3-difluoroazetidin-1-yl)methanone]
[2]
  half-life: 2.61 h
[1]
  CC50 at 48 h: > 100 µM
ROCK1 kinase
  IC50: > 4.5 µM
[3]
  half-life: 0.554 h
[4]
  half-life: 1 h
ROCK2 kinase
  IC50: ≤ 0.05 µM

## CCc1nc(Nc2ccc(-c3cn[nH]c3)cc2)nc(N2CCc3cc(C(=O)N4CC(F)(F)C4)n(C)c3C2)n1 [Compound L048, (6-(4-((4-(1H-pyrazol-4-yl)phenyl)amino)-6-ethyl-1,3,5-triazin-2-yl)-1-methyl-4,5,6,7-tetrahydro-1H-pyrrolo[2,3-c]pyridin-2-yl)(3,3-difluoroazetidin-1-yl)methanone]
[1]
  CC50 at 48 h: 100 µM
ROCK1 kinase
  IC50: > 4.5 µM
ROCK2 kinase
  IC50: 0.5 to 4.5 µM

## CC(C)NC(=O)COc1cccc(-c2nc(Nc3ccc4[nH]ncc4c3)c3ccccc3n2)c1 [KD-025, reference compound]
[2]
  half-life: 1.52 h
[3]
  half-life: 0.287 h
[4]
  half-life: 1.61 h

## O=C(c1cc2c(n1C(F)F)CN(c1ncnc(Nc3ccc(-c4cn[nH]c4)cc3)n1)CC2)N1CC(F)(F)C1 [Compound L045, (6-(4-((4-(1H-pyrazol-4-yl)phenyl)amino)-1,3,5-triazin-2-yl)-1-(difluoromethyl)-4,5,6,7-tetrahydro-1H-pyrrolo[2,3-c]pyridin-2-yl)(3,3-difluoroazetidin-1-yl)methanone]
[1]
  CC50 at 48 h: > 100 µM
ROCK1 kinase
  IC50: > 4.5 µM
ROCK2 kinase
  IC50: > 4.5 µM

## Cn1c(C(=O)N2CC(C(F)F)C2)cc2c1CN(c1ncc(F)c(Nc3ccc(-c4c[nH]nc4F)cc3)n1)CC2 [Compound L039, (3-(difluoromethyl)azetidin-1-yl)(6-(5-fluoro-4-((4-(3-fluoro-1H-pyrazol-4-yl)phenyl)amino)pyrimidin-2-yl)-1-methyl-4,5,6,7-tetrahydro-1H-pyrrolo[2,3-c]pyridin-2-yl)methanone]
ROCK1 kinase
  IC50: > 4.5 µM
ROCK2 kinase
  IC50: 0.05 to 0.5 µM

## Cn1c(C(=O)N2CC(F)(F)C2)cc2c1CN(c1nccc(Nc3ccc(-c4cn[nH]c4)cc3)n1)CC2(C)C [Compound L020, (6-(4-((4-(1H-pyrazol-4-yl)phenyl)amino)pyrimidin-2-yl)-1,4,4-trimethyl-4,5,6,7-tetrahydro-1H-pyrrolo[2,3-c]pyridin-2-yl)(3,3-difluoroazetidin-1-yl)methanone]
ROCK1 kinase
  IC50: > 4.5 µM
ROCK2 kinase
  IC50: 0.05 to 0.5 µM

## Cn1c(C(=O)N2CC(F)(F)C2)cc2c1CN(c1ncc(Cl)c(Nc3ccc(-c4c[nH]nc4F)cc3)n1)CC2 [Compound L038, (6-(5-chloro-4-((4-(3-fluoro-1H-pyrazol-4-yl)phenyl)amino)pyrimidin-2-yl)-1-methyl-4,5,6,7-tetrahydro-1H-pyrrolo[2,3-c]pyridin-2-yl)(3,3-difluoroazetidin-1-yl)methanone]
ROCK1 kinase
  IC50: > 4.5 µM
ROCK2 kinase
  IC50: 0.05 to 0.5 µM

## COc1nnc(N2CCc3cc(C(=O)N4CC(F)(F)C4)n(C)c3C2)nc1Nc1ccc(-c2cn[nH]c2)cc1 [Compound L043, (6-(5-((4-(1H-pyrazol-4-yl)phenyl)amino)-6-methoxy-1,2,4-triazin-3-yl)-1-methyl-4,5,6,7-tetrahydro-1H-pyrrolo[2,3-c]pyridin-2-yl)(3,3-difluoroazetidin-1-yl)methanone]
[2]
  half-life: 1.87 h
[1]
  CC50 at 48 h: > 100 µM
[3]
  half-life: 1.34 h
[4]
  half-life: 1.42 h
ROCK2 kinase
  IC50: 0.05 to 0.5 µM

## Cn1c(C(=O)N2CC(F)(F)C2)cc2c1CN(c1nccc(Nc3ccc(-c4c[nH]nc4F)c(F)c3)n1)CC2 [Compound L016, (3,3-difluoroazetidin-1-yl)(6-(4-((3-fluoro-4-(3-fluoro-1H-pyrazol-4-yl)phenyl)amino)pyrimidin-2-yl)-1-methyl-4,5,6,7-tetrahydro-1H-pyrrolo[2,3-c]pyridin-2-yl)methanone]
ROCK1 kinase
  IC50: > 4.5 µM
ROCK2 kinase
  IC50: ≤ 0.05 µM

## Cn1c(C(=O)Nc2cnccc2F)cc2c1CN(c1nccc(Nc3ccc(-c4cn[nH]c4)cc3)n1)CC2 [Compound L023]
ROCK1 kinase
  IC50: 0.5 to 4.5 µM
ROCK2 kinase
  IC50: 0.05 to 0.5 µM

## O=C(c1ccc2c(c1)CCN(c1nccc(Nc3ccc(-c4cn[nH]c4)cc3)n1)C2)N1CC(F)(F)C1 [Compound L029]
ROCK1 kinase
  IC50: > 4.5 µM
ROCK2 kinase
  IC50: 0.5 to 4.5 µM

## Cn1c(C(=O)N2CC(F)(F)C2)cc2c1CN(c1nc(Nc3ccc(-c4cn[nH]c4)cc3)cc(C(F)(F)F)n1)CC2 [Compound L041, (6-(4-((4-(1H-pyrazol-4-yl)phenyl)amino)-6-(trifluoromethyl)pyrimidin-2-yl)-1-methyl-4,5,6,7-tetrahydro-1H-pyrrolo[2,3-c]pyridin-2-yl)(3,3-difluoroazetidin-1-yl)methanone]
ROCK1 kinase
  IC50: > 4.5 µM
ROCK2 kinase
  IC50: 0.05 to 0.5 µM

## O=C(c1ccc2c(cnn2-c2nccc(Nc3ccc(-c4cn[nH]c4)cc3)n2)c1)N1CC(F)(F)C1 [Compound L055]
ROCK1 kinase
  IC50: > 4.5 µM
ROCK2 kinase
  IC50: 0.5 to 4.5 µM

## Cn1c(C(=O)N2CC(F)(F)C2)cc2c1C(C)(C)N(c1nccc(Nc3ccc(-c4cn[nH]c4)cc3)n1)CC2 [Compound L018]
ROCK1 kinase
  IC50: > 4.5 µM
ROCK2 kinase
  IC50: 0.05 to 0.5 µM

## Cn1c(C(=O)N2C[C@@H](O)[C@@H](F)C2)cc2c1CN(c1nccc(Nc3ccc(-c4cn[nH]c4)cc3)n1)CC2 [Compound L024]
ROCK1 kinase
  IC50: 0.5 to 4.5 µM
ROCK2 kinase
  IC50: ≤ 0.05 µM

## Cn1c(C(=O)N2CC(F)(F)C2)cc2c1CN(c1nc3c(c(Nc4ccc(-c5cn[nH]c5)cc4)n1)COCC3)CC2 [Compound L031]
[1]
  CC50 at 48 h: 33.4 µM
ROCK1 kinase
  IC50: > 4.5 µM
ROCK2 kinase
  IC50: ≤ 0.05 µM

## Cn1c(C(=O)N2CC(F)(F)C2)cc2c1CN(c1nccc(Nc3ccc4[nH]ncc4c3)n1)CC2 [Compound L006, (6-(4-((1H-indazol-5-yl)amino)pyrimidin-2-yl)-1-methyl-4,5,6,7-tetrahydro-1H-pyrrol[2,3-c]pyridin-2-yl)(3,3-difluoroazetidin-1-yl)methanone]
ROCK1 kinase
  IC50: 0.5 to 4.5 µM
ROCK2 kinase
  IC50: 0.05 to 0.5 µM
